Results taken from patent EP4711365A1 (Shanghai Hansoh Biomedical Co., Ltd., priority 2023, dated 2024).

Test system: Groα secretion by HT-29 cells
Assay: Inhibition of Groα secretion by HT-29 cells stimulated with IL-17A (ELISA)
Assay type: cell-based, Human
Details: IL-17A 30 ng/ml, Groα in supernatant
Method: Test example 2 Assay for inhibitory effect of compounds of the present invention against Groα secretion by HT-29 cells
Experimental objective: to measure the inhibitory effect of the compounds against Groα secretion by HT-29 cells, thereby evaluating the inhibition of the compounds on IL-17A pathway.
Experimental method: A cell suspension at 50,000 cells/ml was prepared, and 200 µl of the cell suspension was added to each well of a 96-well plate, i.e., 10,000 cells/well. The plate was cultured overnight. In the 96-well V-bottom plate, 5 mM compound solution was serially diluted 3-fold using DMSO, and the compound from each well was diluted 100-fold using a complete culture medium. IL-17A protein (R&D, #BT7955-025/CF) with a stock concentration of 100 µg/ml was diluted 333.33-fold using a complete culture medium. The compound and IL-17A were mixed at a volume ratio of 1:1 and incubated at 37°C for 30 minutes. 50 µl of a mixture of the compound and IL-17A was added to cell wells, and the final concentration of IL-17A protein was 30 ng/ml.
The mixture was incubated in a 37°C, 5% CO2 cell culture incubator for 48 hours. The concentration of Groα in the supernatant was determined by ELISA method using Human Groα Valukin Elisa kit (Biotechne, # VAL139), and the absorbance intensity at 450 nm was measured using a microplate reader (PE, EnVision2105). Data were analysed using GraphPad Prism 8.3.0.
Experimental data processing method: Data were analysed using GraphPad Prism 8.3.0.
Inhibition rate% = [(average value of positive control wells - value of sample wells)/(average value of positive control wells - average value of negative control wells)] × 100%, where the sample wells are wells containing cells plus compounds at different concentration gradients, the positive control wells are wells containing cells plus IL-17A, and the negative control wells are wells containing culture medium plus IL-17A.
Curve fitting: The IC50 value was obtained by curve fitting based on the inhibition rate (%) at each concentration using the log(inhibitor) vs. responseVariable slope (four parameters) in GraphPad Prism 6.0, and the calculation equation was Y = Bottom + (Top-Bottom)/(1+10^((LogIC50-X)*HillSlope)).

IC50 (Homo sapiens, HT-29, 48 h) [nM]	Compound	other results
9	[2H]C([2H])([2H])OC1CCN(C[C@H](c2cnc(NC(=O)[C@@H](NC(=O)c3ccnn3C([2H])([2H])C([2H])([2H])[2H])[C@H]3CC[C@H](C)CC3)s2)N2CC(F)(F)CCC2=O)CC1 [Example 986]	
8.5	CCn1nccc1C(=O)N[C@H](C(=O)Nc1ncc([C@@H](CN2CCCCC2)N2CC(F)(F)CCC2=O)s1)[C@H]1CC[C@H](C)CC1 [Example 1021]	
5	[2H]C([2H])([2H])C([2H])([2H])n1nccc1C(=O)N[C@H](C(=O)Nc1ncc([C@@H](CN2CCC(=C(F)F)CC2)N2CC(F)(F)CCC2=O)s1)[C@H]1CC[C@H](C)CC1 [Example 980]	
10	CCn1nccc1C(=O)N[C@H](C(=O)Nc1ncc([C@@H](CN2CCCC2)N2CC(F)(F)CCC2=O)s1)[C@H]1CC[C@H](C)CC1 [Example 1022]	
3.2	CCn1nccc1C(=O)N[C@H](C(=O)Nc1ncc([C@@H](CN2C[C@@H](C)OC[C@H]2C)N2CC(F)(F)CCC2=O)s1)[C@H]1CC[C@H](C)CC1 [Example 863]	
4	[2H]C([2H])([2H])C([2H])([2H])n1nccc1C(=O)NC(C(=O)Nc1ncc(C(CN2CCC3C(C2)C3(F)F)N2CC(F)(F)CCC2=O)s1)C1CCC(C)CC1 (stereo not drawn) [Example 970]	
7	[2H]C([2H])([2H])n1nccc1C(=O)N[C@H](C(=O)Nc1ncc([C@@H](CN2CCOCC2)N2CC(F)(F)CCC2=O)s1)[C@H]1CC[C@H](C)CC1 [Example 1030]	
9.6	CCn1nccc1C(=O)NC(C(=O)Nc1ncc(C(CN2CCC(OC)C2)N2CC(F)(F)CCC2=O)s1)C1CCC(C)CC1 (stereo not drawn) [Example 648]	
3	[2H]C([2H])([2H])C([2H])([2H])n1nccc1C(=O)N[C@H](C(=O)Nc1ncc([C@@H](CN2CCO[C@H](CF)C2)N2CC(F)(F)CCC2=O)s1)[C@H]1CC[C@H](C)CC1 [Example 820, N-((S)-2-((5-((R)-1-(5,5-difluoro-2-oxopiperidin-1-yl)-2-((S)-2-(fluoromethyl)morpholino)ethyl)thiazol-2-yl)amino)-1-((1r,4S)-4-methylcyclohexyl)-2-oxoethyl)-1-(ethyl-d5)-1H-pyrazole-5-carboxamide]	
6	[2H]C([2H])([2H])C([2H])([2H])n1nccc1C(=O)N[C@H](C(=O)Nc1ncc([C@@H](CN2CCC3(CCOC3)CC2)N2CC(F)(F)CCC2=O)s1)[C@H]1CC[C@H](C)CC1 [Example 1034]	
2.7	[2H]C([2H])([2H])C([2H])([2H])n1nccc1C(=O)N[C@H](C(=O)Nc1ncc([C@@H](CN2C[C@@H](C)OC[C@H]2C)N2CC(F)(F)CCC2=O)s1)[C@H]1CC[C@H](C)CC1 [Example 862, N-((S)-2-((5-((R)-1-(5,5-difluoro-2-oxopiperidin-1-yl)-2-((2R,5R)-2,5-dimethylmorpholino)ethyl)thiazol-2-yl)amino)-1-((1r,4S)-4-methylcyclohexyl)-2-oxoethyl)-1-(ethyl-d5)-1H-pyrazole-5-carboxamide]	
8.8	[2H]C([2H])([2H])OC1(C)CCN(C[C@H](c2cnc(NC(=O)[C@@H](NC(=O)c3ccnn3C([2H])([2H])C([2H])([2H])[2H])[C@H]3CC[C@H](C)CC3)s2)N2CC(F)(F)CCC2=O)CC1 [Example 988]	
2	[2H]C([2H])([2H])C([2H])([2H])n1nccc1C(=O)N[C@H](C(=O)Nc1ncc([C@@H](CN2C[C@H](C)OC[C@@H]2C)N2CC(F)(F)CCC2=O)s1)[C@H]1CC[C@H](C)CC1 [Example 860, N-((S)-2-((5-((R)-1-(5,5-difluoro-2-oxopiperidin-1-yl)-2-((2S,5S)-2,5-dimethylmorpholino)ethyl)thiazol-2-yl)amino)-1-((1r,4S)-4-methylcyclohexyl)-2-oxoethyl)-1-(ethyl-d5)-1H-pyrazole-5-carboxamide]	
3.5	[2H]C([2H])([2H])C([2H])([2H])n1nccc1C(=O)N[C@H](C(=O)Nc1ncc([C@@H](CN2CCC(F)(F)CC2)N2CC(F)(F)CCC2=O)s1)[C@H]1CC[C@H](C)CC1 [Example 913]	
4	[2H]C([2H])([2H])C([2H])([2H])n1nccc1C(=O)N[C@H](C(=O)Nc1ncc([C@@H](CN2CCC(F)CC2)N2CC(F)(F)CCC2=O)s1)[C@H]1CC[C@H](C)CC1 [Example 919]	

More lines, now with the values behind:

Compound	IC50 (Homo sapiens, HT-29, 48 h) [nM]	other results
[2H]C1([2H])NC(=O)N([C@H](COC)c2cnc(NC(=O)[C@@H](NC(=O)c3ccnn3C(C)C)C3CCC(F)(F)CC3)s2)C([2H])([2H])C1(F)F [Example 259, N-((S)-2-((5-((R)-1-(5,5-difluoro-2-carbonyltetrahydropyrimidin-1(2H)-yl-4,4,6,6-d4)-2-methoxyethyl)thiazol-2-yl)amino)-1-(4,4-difluorocyclohexyl)-2-carbonylethyl)-1-isopropyl-1H-pyrazole-5-carboxamide]	5.5	
[2H]C([2H])([2H])C([2H])([2H])n1nccc1C(=O)N[C@H](C(=O)Nc1ncc(C(COC)n2cc(Cl)ccc2=O)s1)[C@H]1CC[C@H](C)CC1 (stereo partly drawn) [Example 586-1]	8.4	
CCn1nccc1C(=O)N[C@H](C(=O)Nc1ncc([C@@H](CN2CCC(OC)CC2)n2cc(Cl)ccc2=O)s1)[C@H]1CC[C@H](C)CC1 [Example 634]	2.5	
CCn1nccc1C(=O)N[C@H](C(=O)Nc1ncc([C@@H](COC)n2cc(Cl)ccc2=O)s1)[C@H]1CC[C@H](C)CC1 [Example 689]	5.2	
CCn1nccc1C(=O)N[C@H](C(=O)Nc1ncc([C@@H](CN2CCC(COC)CC2)N2CC(F)(F)CCC2=O)s1)[C@H]1CC[C@H](C)CC1 [Example 1036]	6	
C[C@H]1CC[C@H]([C@H](NC(=O)C2(F)CC2)C(=O)Nc2ncc([C@@H](CN3CCC(CF)CC3)N3CC(F)(F)CNC3=O)s2)CC1 [Example 767]	7	
COCCN(C)C[C@H](c1cnc(NC(=O)[C@@H](NC(=O)c2ccnn2C)[C@H]2CC[C@H](C)CC2)s1)N1CC(F)(F)CCC1=O [Example 1024]	7	
COC[C@H](c1cnc(NC(=O)[C@@H](NC(=O)c2ccnn2C(C)C)[C@H]2CC[C@H](C)CC2)s1)N1CC(F)(F)CNC1=O [Example 327]		IC50 (Homo sapiens, 48 hours): 2.5 nM
CCn1nccc1C(=O)N[C@H](C(=O)Nc1ncc([C@@H](CN2CCC3(CC2)OCCO3)n2cc(Cl)ccc2=O)s1)[C@H]1CC[C@H](C)CC1 [Example 1020]	2.5	
CCn1nccc1C(=O)N[C@H](C(=O)Nc1ncc([C@@H](CN2CCC(C(=O)O)CC2)n2cc(Cl)ccc2=O)s1)[C@H]1CC[C@H](C)CC1 [Example 663]	1.6	
COC[C@H](c1cnc(NC(=O)[C@@H](NC(=O)c2ccnn2C(C)C)C2CCCCC2)s1)N1CC(F)(F)CNC1=O [Example 565]	4	
CCc1nonc1C(=O)N[C@H](C(=O)Nc1ncc(C(C2CCS(=O)(=O)CC2)n2cc(Cl)ccc2=O)s1)[C@H]1CC[C@H](C)CC1 (stereo partly drawn) [Example 540-1]	8	
CCn1nccc1C(=O)N[C@H](C(=O)Nc1ncc([C@@H](CN(C)CCOC)N2CC(F)(F)CCC2=O)s1)[C@H]1CC[C@H](C)CC1 [Example 1023]	10	
CCn1nccc1C(=O)NC(C(=O)Nc1ncc(C(CN2CCC(OC)C2)N2CC(F)(F)CCC2=O)s1)C1CCC(C)CC1 (stereo not drawn) [Example 650]		IC50 (48 hours): 6 nM
COCCC(c1cnc(NC(=C=O)[C@@H](NC(=O)c2ccnn2C(C)C)C2CCCCC2)s1)N1C[C@@H](C(F)(F)F)NC1=C=O (stereo partly drawn) [Example 564, N-((1S)-1-cyclohexyl-2-((5-(3-methoxy-1-((S)-2-carbonyl-4-(trifluoromethyl)imidazolidin-1-yl)propyl)thiazol-2-yl)amino)-2-carbonylethyl)-1-isopropyl-1H-pyrazole-5-carboxamide]	5.9	
[2H]C([2H])([2H])OC1CCN(C[C@H](c2cnc(NC(=O)[C@@H](NC(=O)C3(F)CC3)[C@H]3CC[C@H](C)CC3)s2)N2CC(F)(F)CNC2=O)CC1 [Example 780]		IC50 (Homo sapiens, 48 hours): 10 nM
CCn1nccc1C(=O)N[C@H](C(=O)Nc1ncc([C@@H](CN(C)C)n2cc(Cl)ccc2=O)s1)[C@H]1CC[C@H](C)CC1 [Example 644]	3.8	
C[C@H]1CC[C@H]([C@H](NC(=O)C2(F)CC2)C(=O)Nc2ncc([C@@H](CN3CC4CCC(C3)O4)N3CC(F)(F)CNC3=O)s2)CC1 [Example 743]		IC50 (Homo sapiens, 48 hours): 6 nM
[2H]C([2H])([2H])n1nccc1C(=O)N[C@H](C(=O)Nc1ncc([C@@H](CN2CCC3(COC3)C2)N2CC(F)(F)CCC2=O)s1)[C@H]1CC[C@H](C)CC1 [Example 1032]	8	
[2H]C([2H])([2H])C([2H])([2H])n1nccc1C(=O)N[C@H](C(=O)Nc1ncc([C@@H](CN2CCOCC2)n2cc(Cl)ccc2=O)s1)[C@H]1CC[C@H](C)CC1 [Example 574]	5	
C[C@H]1CC[C@H]([C@H](NC(=O)C2(F)CC2)C(=O)Nc2ncc([C@@H](CN3CCC4(CC3)CC4(F)F)N3CC(F)(F)CNC3=O)s2)CC1 [Example 1016]	2	
